Series [1] has as its system MRC5. As to the kind of experiment: Inhibition of MRC5 cell proliferation. Format: functional, cell-based. To be noted: Homo sapiens.
Series [2] deals with HB4a. As to the kind of experiment: Inhibition of RAS overexpressing HB4a.R4.2 cell proliferation. The following applies: Homo sapiens. It is filed as functional, cell-based.
Series [3] addresses Proto-oncogene tyrosine-protein kinase Src (Homo sapiens, UniProt P12931). As to the kind of experiment: Inhibition of Src kinase.
The nature of series [4]: Bioavailability in dog. It is filed as ADME, organism-based, Canis lupus familiaris. The following applies: in vivo.
The nature of series [5]: Pharmacokinetic property (Plasma clearance) was measured in rat. It is filed as ADME, organism-based.
In series [6] the target is Dual specificity mitogen-activated protein kinase kinase; MEK1/2 (Homo sapiens, UniProt P36507+Q02750). Description: Inhibition of MAPK kinase (MEK). Format: protein assay.
A short description of series [7]: Half-life was measured in dog. The following applies: in vivo. It is filed as ADME, organism-based, Canis lupus familiaris.
Series [8] can be described thus: Bioavailability was measured in rat. To be noted: in vivo. It is filed as ADME, organism-based.
For series [9], the target named is Cyclin-dependent kinase 1 (Homo sapiens, UniProt P06493). Description: Inhibition of Cyclin-dependent kinase 1.
Series [10] can be described thus: Half-life was measured in rat. It is filed as ADME, organism-based. To be noted: in vivo.
A short description of series [11]: Pharmacokinetic property (Plasma clearance) was measured in dog. Format: ADME, organism-based, Canis lupus familiaris.
Series [12] deals with Cyclin-dependent kinase 2 (Homo sapiens, UniProt P24941). Description: Inhibition of Cyclin-dependent kinase 2.
A short description of series [13]: Half-life was measured in mouse. To be noted: in vivo. It is filed as ADME, organism-based.
The nature of series [14]: Bioavailability was measured in mouse. Format: ADME, organism-based. The following applies: in vivo.
The nature of series [15]: Pharmacokinetic property (Plasma clearance) was measured in mouse. It is filed as ADME, organism-based.
For series [16], the target named is RAF proto-oncogene serine/threonine-protein kinase (Homo sapiens, UniProt P04049). Description: Inhibition of Raf kinase.
In series [17] the target is Receptor tyrosine-protein kinase erbB-2 (Rattus norvegicus, UniProt P06494). Description: Inhibition of rat Receptor protein-tyrosine kinase erbB2.
In series [18] the target is Epidermal growth factor receptor and ErbB2 (HER1 and HER2) (Homo sapiens) (UniProt P04626+P00533). Description: Selectivity for EGF receptor and c-erbB-2. Format: protein assay.

The text below walks through data of ChEMBL document CHEMBL1134080, “Indazolylamino quinazolines and pyridopyrimidines as inhibitors of the EGFr and C-erbB-2” (Bioorg Med Chem Lett, 2001).

For orientation: IC50 means the concentration that inhibits the measured activity by half. Read a high IC50 as lower potency. By bioavailability is commonly meant dose-corrected exposure relative to a reference, in per cent. Low values mean poor availability, high ones good availability. As a reminder, the clearance is the volume of plasma or blood freed of the substance per unit of time. A lower clearance goes with a low capacity for elimination. The half-life is how long it takes for the measured level to halve. Read a low half-life as fast loss.

Receptor tyrosine-protein kinase erbB-2, sequence (P06494 whole entry): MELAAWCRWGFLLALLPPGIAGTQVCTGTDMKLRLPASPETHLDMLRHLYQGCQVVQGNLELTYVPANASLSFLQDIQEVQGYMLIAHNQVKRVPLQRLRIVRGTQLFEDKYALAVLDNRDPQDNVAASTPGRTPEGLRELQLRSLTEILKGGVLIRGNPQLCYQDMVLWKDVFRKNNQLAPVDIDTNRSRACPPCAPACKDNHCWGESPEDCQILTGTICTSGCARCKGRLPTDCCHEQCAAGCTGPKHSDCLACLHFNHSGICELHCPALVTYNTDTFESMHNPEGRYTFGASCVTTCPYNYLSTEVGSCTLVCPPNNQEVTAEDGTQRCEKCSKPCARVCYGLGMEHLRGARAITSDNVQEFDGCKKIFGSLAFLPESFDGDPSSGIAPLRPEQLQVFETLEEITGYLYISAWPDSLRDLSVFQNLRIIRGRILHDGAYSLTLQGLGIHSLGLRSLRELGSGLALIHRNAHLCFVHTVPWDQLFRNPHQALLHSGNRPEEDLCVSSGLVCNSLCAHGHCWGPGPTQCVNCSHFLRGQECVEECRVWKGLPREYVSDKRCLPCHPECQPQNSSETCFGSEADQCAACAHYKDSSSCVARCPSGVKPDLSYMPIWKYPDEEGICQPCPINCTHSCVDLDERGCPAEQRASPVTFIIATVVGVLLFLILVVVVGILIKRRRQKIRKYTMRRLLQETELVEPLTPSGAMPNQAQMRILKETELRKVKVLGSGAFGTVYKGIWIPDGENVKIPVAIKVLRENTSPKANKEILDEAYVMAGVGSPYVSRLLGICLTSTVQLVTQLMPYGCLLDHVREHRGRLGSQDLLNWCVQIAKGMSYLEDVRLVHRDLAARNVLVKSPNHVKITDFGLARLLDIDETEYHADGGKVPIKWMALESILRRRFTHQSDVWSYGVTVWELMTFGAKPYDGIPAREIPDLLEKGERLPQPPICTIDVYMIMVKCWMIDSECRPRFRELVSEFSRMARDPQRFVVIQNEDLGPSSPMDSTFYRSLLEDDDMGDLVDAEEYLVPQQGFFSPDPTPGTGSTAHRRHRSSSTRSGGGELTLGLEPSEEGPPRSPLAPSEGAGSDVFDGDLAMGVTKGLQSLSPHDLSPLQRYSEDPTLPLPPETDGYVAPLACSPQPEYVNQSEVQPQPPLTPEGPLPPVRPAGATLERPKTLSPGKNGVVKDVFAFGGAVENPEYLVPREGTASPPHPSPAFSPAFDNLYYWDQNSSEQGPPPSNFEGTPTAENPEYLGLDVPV
RAF proto-oncogene serine/threonine-protein kinase, sequence (P04049 whole entry): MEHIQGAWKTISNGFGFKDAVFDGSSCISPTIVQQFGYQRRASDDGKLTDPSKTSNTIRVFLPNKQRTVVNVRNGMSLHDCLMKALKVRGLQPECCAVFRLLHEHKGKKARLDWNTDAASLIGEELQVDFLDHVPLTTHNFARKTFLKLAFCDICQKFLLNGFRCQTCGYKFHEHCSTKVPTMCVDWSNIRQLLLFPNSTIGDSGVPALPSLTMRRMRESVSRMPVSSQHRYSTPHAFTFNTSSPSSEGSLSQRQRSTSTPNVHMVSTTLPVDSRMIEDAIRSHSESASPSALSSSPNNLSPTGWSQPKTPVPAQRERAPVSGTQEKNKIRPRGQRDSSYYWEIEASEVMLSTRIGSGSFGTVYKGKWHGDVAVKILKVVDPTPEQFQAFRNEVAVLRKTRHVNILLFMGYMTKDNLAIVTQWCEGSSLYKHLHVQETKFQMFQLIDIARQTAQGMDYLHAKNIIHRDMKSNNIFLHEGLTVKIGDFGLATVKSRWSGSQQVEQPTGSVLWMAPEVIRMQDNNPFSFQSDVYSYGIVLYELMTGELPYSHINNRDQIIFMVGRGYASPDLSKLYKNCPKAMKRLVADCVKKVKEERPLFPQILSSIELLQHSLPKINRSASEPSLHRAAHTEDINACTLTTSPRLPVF
Cyclin-dependent kinase 1, sequence (P06493 whole entry): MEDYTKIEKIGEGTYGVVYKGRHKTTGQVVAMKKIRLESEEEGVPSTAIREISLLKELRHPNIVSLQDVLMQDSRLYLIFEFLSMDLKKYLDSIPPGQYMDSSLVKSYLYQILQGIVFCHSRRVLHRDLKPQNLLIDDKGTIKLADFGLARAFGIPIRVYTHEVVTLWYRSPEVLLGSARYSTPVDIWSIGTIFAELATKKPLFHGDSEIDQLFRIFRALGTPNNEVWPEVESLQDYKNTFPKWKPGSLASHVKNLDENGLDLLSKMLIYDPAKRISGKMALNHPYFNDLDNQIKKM
Proto-oncogene tyrosine-protein kinase Src, sequence (P12931 2-536 limits assumed): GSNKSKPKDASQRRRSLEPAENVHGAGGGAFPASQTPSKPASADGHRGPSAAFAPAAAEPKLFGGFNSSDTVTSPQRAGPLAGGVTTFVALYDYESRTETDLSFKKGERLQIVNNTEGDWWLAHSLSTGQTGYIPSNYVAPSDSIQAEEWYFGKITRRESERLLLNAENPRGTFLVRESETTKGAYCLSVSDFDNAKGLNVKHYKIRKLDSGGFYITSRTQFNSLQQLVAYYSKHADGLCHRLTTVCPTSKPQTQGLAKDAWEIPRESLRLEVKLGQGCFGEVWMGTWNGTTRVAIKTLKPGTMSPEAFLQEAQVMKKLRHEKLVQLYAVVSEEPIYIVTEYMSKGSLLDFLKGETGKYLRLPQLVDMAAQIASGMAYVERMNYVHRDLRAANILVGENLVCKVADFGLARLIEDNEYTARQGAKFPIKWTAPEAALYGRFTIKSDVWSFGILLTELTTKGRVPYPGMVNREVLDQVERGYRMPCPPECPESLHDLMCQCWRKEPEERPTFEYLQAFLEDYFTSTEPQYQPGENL

As for `CN(C)c1cc2c(Nc3ccc4c(cnn4Cc4ccccc4)c3)ncnc2cn1` [GW282974X], the IC50 in series [1] is more than 50 µM; in series [2], 30 µM; in [3], more than 50 µM; in series [6] it was 9.7 µM; in [9], more than 8 µM; in series [12], more than 8 µM. Besides, the IC50 was 49 µM in series [16] and 0.018 µM in series [17]. For the same compound, the bioavailability is 82% in [4], 24% in [8] and more than 23% in [14]. Also, the clearance in [5] was 1.14 L/h/kg; in [11], 2.04 L/h/kg; in [15], more than 1.62 L/h/kg. Also, the half-life was 44 min in series [7], 18 min in [10] and 20 min in [13].

On to `Nc1cc2c(Nc3ccc4c(cnn4Cc4ccccc4)c3)ncnc2cn1`, for which the Selectivity in series [18] was more than 5.6. The compound also registered an IC50 in series [17] of 0.027 µM.

As to `c1ccc(Cn2cnc3cc(Nc4ncnc5ccccc45)ccc32)cc1`, the Selectivity in [18] was determined as 39. Also, in series [17], the half-maximal inhibitory concentration (IC50) stood at 6.6 µM.

Regarding `COc1cc2ncnc(Nc3ccc4c(cnn4Cc4ccccc4)c3)c2cc1OC`, the Selectivity in series [18] is more than 5.6. The compound further gave an IC50 in [17] of 0.001 µM.

In turn, `Nc1cc2c(Nc3ccc4c(ccn4Cc4ccccc4)c3)ncnc2cn1` gave a concentration for half-maximal inhibition (IC50) in series [17] of 0.026 µM.

Regarding `c1ccc(Cc2nc3ccc(Nc4ncnc5ccccc45)cc3[nH]2)cc1`, the Selectivity in series [18] came to 36. In series [17], this compound showed an IC50 of 0.56 µM.

Consider `COc1cc2ncnc(Nc3ccc4nc(Cc5ccccc5)[nH]c4c3)c2cc1OC`, for which the Selectivity in [18] was found to be 19. In addition, the half-maximal inhibitory concentration (IC50) in series [17] is 0.01 µM.

In [18], `COc1cc2ncnc(Nc3ccc4c(ccn4Cc4ccccc4)c3)c2cc1OC` returned a Selectivity of 12.5. This compound came in with a concentration for half-maximal inhibition (IC50) in series [17] of 0.049 µM.

For `c1ccc(Cn2cnc3ccc(Nc4ncnc5ccccc45)cc32)cc1`, the Selectivity in series [18] was 27. Further, inhibition in series [17] was half-maximal at 4.4 µM (IC50).

Regarding `Nc1cc2c(Nc3ccc4[nH]c(Cc5ccccc5)nc4c3)ncnc2cn1`, in series [18], the Selectivity is 18.5. In addition, half-maximal inhibition in series [17] (IC50) required 0.049 µM.

With `c1ccc(Cn2ccc3cc(Nc4ncnc5ccccc45)ccc32)cc1`, the concentration for half-maximal inhibition (IC50) in series [17] stood at 0.09 µM.

Regarding `COc1cc2ncnc(Nc3ccc4nn(Cc5ccccc5)cc4c3)c2cc1OC`, the Selectivity in series [18] was determined as 8.9. In [17], this compound displayed a half-maximal inhibitory concentration (IC50) of 0.29 µM.

Regarding `c1ccc(Cn2ncc3cc(Nc4ncnc5ccccc45)ccc32)cc1`, the IC50 in series [17] came to 0.01 µM.
